# ± gives the expanded uncertainty stated by the source.
# Assay: xn = mol fraction of the nth substance listed
# Settings: Constant-volume piezometry
compound,measurement,setting,value
CCCCC [pentane] + CCCO,mass density,"563.15 K, 15195 kPa, Fluid (supercritical or subcritical phases), x1 = 0.9",353.41 ± 1.8 kg/m3
same,mass density,"563.15 K, 15944 kPa, Fluid (supercritical or subcritical phases), x1 = 0.8",361.2 ± 1.8 kg/m3
same,mass density,"563.15 K, 20883 kPa, Fluid (supercritical or subcritical phases), x1 = 0.2",469.34 ± 2.4 kg/m3
same,mass density,"563.15 K, 22608 kPa, Fluid (supercritical or subcritical phases), x1 = 0.9",406.44 ± 2 kg/m3
same,mass density,"563.15 K, 23762 kPa, Fluid (supercritical or subcritical phases), x1 = 0.8",417.33 ± 2.1 kg/m3
same,mass density,"563.15 K, 29039 kPa, Fluid (supercritical or subcritical phases), x1 = 0.2",508.42 ± 2.6 kg/m3
same,mass density,"563.15 K, 36842 kPa, Fluid (supercritical or subcritical phases), x1 = 0.8",465.69 ± 2.4 kg/m3
same,mass density,"563.15 K, 41493 kPa, Fluid (supercritical or subcritical phases), x1 = 0.2",545.72 ± 2.8 kg/m3
same,mass density,"573.15 K, 1455 kPa, Gas, x1 = 0.8",22.47 ± 0.07 kg/m3
same,mass density,"573.15 K, 1761 kPa, Gas, x1 = 0.2",24.87 ± 0.08 kg/m3
same,mass density,"573.15 K, 2249 kPa, Gas, x1 = 0.8",36.6 ± 0.11 kg/m3
same,mass density,"573.15 K, 3350 kPa, Gas, x1 = 0.8",58.27 ± 0.18 kg/m3
same,mass density,"573.15 K, 3774 kPa, Gas, x1 = 0.2",52.88 ± 0.16 kg/m3
same,mass density,"573.15 K, 4034 kPa, Fluid (supercritical or subcritical phases), x1 = 0.8",73.62 ± 0.37 kg/m3
same,mass density,"573.15 K, 4329 kPa, Fluid (supercritical or subcritical phases), x1 = 0.9",83.18 ± 0.42 kg/m3
same,mass density,"573.15 K, 5099 kPa, Fluid (supercritical or subcritical phases), x1 = 0.2",91.19 ± 0.46 kg/m3
same,mass density,"573.15 K, 5320 kPa, Fluid (supercritical or subcritical phases), x1 = 0.8",106.15 ± 0.54 kg/m3
same,mass density,"573.15 K, 5748 kPa, Fluid (supercritical or subcritical phases), x1 = 0.9",123.05 ± 0.62 kg/m3
same,mass density,"573.15 K, 5856 kPa, Fluid (supercritical or subcritical phases), x1 = 0.2",114.08 ± 0.58 kg/m3
same,mass density,"573.15 K, 6139 kPa, Fluid (supercritical or subcritical phases), x1 = 0.9",133.8 ± 0.68 kg/m3
same,mass density,"573.15 K, 6637 kPa, Fluid (supercritical or subcritical phases), x1 = 0.8",139.97 ± 0.71 kg/m3
same,mass density,"573.15 K, 6909 kPa, Fluid (supercritical or subcritical phases), x1 = 0.2",149.98 ± 0.76 kg/m3
same,mass density,"573.15 K, 7024 kPa, Fluid (supercritical or subcritical phases), x1 = 0.9",163.56 ± 0.83 kg/m3
same,mass density,"573.15 K, 7062 kPa, Fluid (supercritical or subcritical phases), x1 = 0.8",155.67 ± 0.79 kg/m3
same,mass density,"573.15 K, 7474 kPa, Fluid (supercritical or subcritical phases), x1 = 0.8",169.37 ± 0.86 kg/m3
same,mass density,"573.15 K, 7491 kPa, Fluid (supercritical or subcritical phases), x1 = 0.2",175.18 ± 0.9 kg/m3
same,mass density,"573.15 K, 7658 kPa, Fluid (supercritical or subcritical phases), x1 = 0.8",175.6 ± 0.89 kg/m3
same,mass density,"573.15 K, 7755 kPa, Fluid (supercritical or subcritical phases), x1 = 0.2",189.17 ± 0.97 kg/m3
same,mass density,"573.15 K, 7776 kPa, Fluid (supercritical or subcritical phases), x1 = 0.8",180.39 ± 0.91 kg/m3
same,mass density,"573.15 K, 7805 kPa, Fluid (supercritical or subcritical phases), x1 = 0.9",188.99 ± 0.96 kg/m3
same,mass density,"573.15 K, 8168 kPa, Fluid (supercritical or subcritical phases), x1 = 0.8",192.69 ± 0.98 kg/m3
same,mass density,"573.15 K, 8184 kPa, Fluid (supercritical or subcritical phases), x1 = 0.9",201.88 ± 1 kg/m3
same,mass density,"573.15 K, 8351 kPa, Fluid (supercritical or subcritical phases), x1 = 0.2",219.55 ± 1.1 kg/m3
same,mass density,"573.15 K, 8805 kPa, Fluid (supercritical or subcritical phases), x1 = 0.9",220.14 ± 1.1 kg/m3
same,mass density,"573.15 K, 8815 kPa, Fluid (supercritical or subcritical phases), x1 = 0.8",213.33 ± 1.1 kg/m3
same,mass density,"573.15 K, 8859 kPa, Fluid (supercritical or subcritical phases), x1 = 0.2",244.86 ± 1.2 kg/m3
same,mass density,"573.15 K, 9002 kPa, Fluid (supercritical or subcritical phases), x1 = 0.8",219.08 ± 1.1 kg/m3
same,mass density,"573.15 K, 9138 kPa, Fluid (supercritical or subcritical phases), x1 = 0.2",258.55 ± 1.3 kg/m3
same,mass density,"573.15 K, 9198 kPa, Fluid (supercritical or subcritical phases), x1 = 0.9",232.49 ± 1.2 kg/m3
same,mass density,"573.15 K, 9211 kPa, Fluid (supercritical or subcritical phases), x1 = 0.2",262.25 ± 1.3 kg/m3
same,mass density,"573.15 K, 9316 kPa, Fluid (supercritical or subcritical phases), x1 = 0.9",235.95 ± 1.2 kg/m3
same,mass density,"573.15 K, 9432 kPa, Fluid (supercritical or subcritical phases), x1 = 0.2",271.68 ± 1.4 kg/m3
same,mass density,"573.15 K, 9453 kPa, Fluid (supercritical or subcritical phases), x1 = 0.9",240.34 ± 1.2 kg/m3
same,mass density,"573.15 K, 9462 kPa, Fluid (supercritical or subcritical phases), x1 = 0.8",234.13 ± 1.2 kg/m3
same,mass density,"573.15 K, 9562 kPa, Fluid (supercritical or subcritical phases), x1 = 0.9",243.64 ± 1.2 kg/m3
same,mass density,"573.15 K, 9806 kPa, Fluid (supercritical or subcritical phases), x1 = 0.8",244.74 ± 1.2 kg/m3
same,mass density,"573.15 K, 9864 kPa, Fluid (supercritical or subcritical phases), x1 = 0.2",289.81 ± 1.5 kg/m3
same,mass density,"573.15 K, 10272 kPa, Fluid (supercritical or subcritical phases), x1 = 0.2",306.05 ± 1.6 kg/m3
same,mass density,"573.15 K, 10324 kPa, Fluid (supercritical or subcritical phases), x1 = 0.8",257.93 ± 1.3 kg/m3
same,mass density,"573.15 K, 10392 kPa, Fluid (supercritical or subcritical phases), x1 = 0.2",310.27 ± 1.6 kg/m3
same,mass density,"573.15 K, 10713 kPa, Fluid (supercritical or subcritical phases), x1 = 0.2",317.97 ± 1.6 kg/m3
same,mass density,"573.15 K, 10865 kPa, Fluid (supercritical or subcritical phases), x1 = 0.8",271.86 ± 1.4 kg/m3
same,mass density,"573.15 K, 11108 kPa, Fluid (supercritical or subcritical phases), x1 = 0.9",281.31 ± 1.4 kg/m3
same,mass density,"573.15 K, 11531 kPa, Fluid (supercritical or subcritical phases), x1 = 0.2",340.39 ± 1.7 kg/m3
same,mass density,"573.15 K, 11654 kPa, Fluid (supercritical or subcritical phases), x1 = 0.2",343.17 ± 1.7 kg/m3
same,mass density,"573.15 K, 11678 kPa, Fluid (supercritical or subcritical phases), x1 = 0.8",287.66 ± 1.4 kg/m3
same,mass density,"573.15 K, 12021 kPa, Fluid (supercritical or subcritical phases), x1 = 0.9",300.93 ± 1.5 kg/m3
same,mass density,"573.15 K, 12217 kPa, Fluid (supercritical or subcritical phases), x1 = 0.8",298.45 ± 1.5 kg/m3
same,mass density,"573.15 K, 12707 kPa, Fluid (supercritical or subcritical phases), x1 = 0.9",311.54 ± 1.6 kg/m3
same,mass density,"573.15 K, 13246 kPa, Fluid (supercritical or subcritical phases), x1 = 0.8",314.57 ± 1.6 kg/m3
same,mass density,"573.15 K, 13392 kPa, Fluid (supercritical or subcritical phases), x1 = 0.2",377.65 ± 1.9 kg/m3
same,mass density,"573.15 K, 13687 kPa, Fluid (supercritical or subcritical phases), x1 = 0.2",382.44 ± 1.9 kg/m3
same,mass density,"573.15 K, 14239 kPa, Fluid (supercritical or subcritical phases), x1 = 0.9",333.19 ± 1.7 kg/m3
same,mass density,"573.15 K, 14284 kPa, Fluid (supercritical or subcritical phases), x1 = 0.2",390.25 ± 2 kg/m3
same,mass density,"573.15 K, 14505 kPa, Fluid (supercritical or subcritical phases), x1 = 0.8",333.01 ± 1.7 kg/m3
same,mass density,"573.15 K, 15392 kPa, Fluid (supercritical or subcritical phases), x1 = 0.8",344.5 ± 1.7 kg/m3
same,mass density,"573.15 K, 16409 kPa, Fluid (supercritical or subcritical phases), x1 = 0.9",353.22 ± 1.8 kg/m3
same,mass density,"573.15 K, 16662 kPa, Fluid (supercritical or subcritical phases), x1 = 0.2",417.59 ± 2.1 kg/m3
same,mass density,"573.15 K, 17250 kPa, Fluid (supercritical or subcritical phases), x1 = 0.8",361.01 ± 1.8 kg/m3
same,mass density,"573.15 K, 23293 kPa, Fluid (supercritical or subcritical phases), x1 = 0.2",469.08 ± 2.4 kg/m3
same,mass density,"573.15 K, 24391 kPa, Fluid (supercritical or subcritical phases), x1 = 0.9",406.23 ± 2 kg/m3
same,mass density,"573.15 K, 25613 kPa, Fluid (supercritical or subcritical phases), x1 = 0.8",417.11 ± 2.1 kg/m3
same,mass density,"573.15 K, 32252 kPa, Fluid (supercritical or subcritical phases), x1 = 0.2",508.13 ± 2.6 kg/m3
same,mass density,"573.15 K, 39390 kPa, Fluid (supercritical or subcritical phases), x1 = 0.8",465.43 ± 2.4 kg/m3

# Source: the NIST ThermoML archive (doi:10.1016/j.jct.2016.10.023)
